Molecular target: T1, CCR2 (Homo sapiens, UniProt P41597)
T1 construct: expressed in transfected cells
Test: CCR2 calcium activity assay on FLIPR Tetra in HEK-Gqi5 cells stably expressing CCR2
Assay type: cell-based
Method: HEK-Gqi5 cells stably expressing CCR2 were cultured in (DMEM high glucose, 10% FBS, 1% PSA, 400 μg/ml geneticin and 50 μg/ml hygromycin. Appropriate positive control chemokines (MCP-1, MIP1A or RANTES) was used as the positive control agonist for screening compound-induced calcium activity assayed on the FLIPR^Tetra. The drug plates were prepared in 384-well microplates using the EP3 and the MuItiPROBE robotic liquid handling systems. Compounds were synthesized and tested for CCR2 activity.

T1 sequence (P41597 whole entry, species assumed): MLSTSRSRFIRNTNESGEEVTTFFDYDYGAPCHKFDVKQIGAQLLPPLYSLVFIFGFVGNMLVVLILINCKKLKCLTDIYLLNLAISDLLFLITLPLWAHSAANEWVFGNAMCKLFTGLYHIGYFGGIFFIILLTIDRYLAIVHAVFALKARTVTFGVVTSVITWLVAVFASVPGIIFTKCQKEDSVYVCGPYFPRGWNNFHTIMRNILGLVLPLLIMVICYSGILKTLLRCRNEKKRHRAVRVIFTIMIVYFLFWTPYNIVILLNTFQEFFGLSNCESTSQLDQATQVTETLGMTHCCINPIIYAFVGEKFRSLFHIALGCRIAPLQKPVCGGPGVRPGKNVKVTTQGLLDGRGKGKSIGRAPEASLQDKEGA

CCR2 % ANTAG	IC50	Structure (SMILES)
95%	851 nM	Cc1ccc(S(=O)(=O)Nc2cc(Cl)c(Cl)cc2NS(=O)(=O)c2ccc3c(c2)c(=O)sn3C)s1 [N-(4,5-dichloro-2-{[(5-methyl-2-thienyl)sulfonyl]amino}phenyl)-1-methyl-3-oxo-1,3-dihydro-2,1-benzisothiazole-5-sulfonamide]
86%	1190 nM	CSc1cccc(NS(=O)(=O)c2ccc3c(c2)c(=O)sn3C)c1 [1-methyl-N-[3-(methylthio)phenyl]-3-oxo-1,3-dihydro-2,1-benzisothiazole-5-sulfonamide]
75%	311 nM	Cc1cc(NS(=O)(=O)c2ccc3c(c2)c(=O)sn3C)c(NS(=O)(=O)c2cccs2)cc1Cl [N-{4-chloro-5-methyl-2-[(2-thienylsulfonyl)amino]phenyl}-1-methyl-3-oxo-1,3-dihydro-2,1-benzisothiazole-5-sulfonamide]
90%	4320 nM	CC(C)n1sc(=O)c2cc(S(=O)(=O)Nc3ccccc3NS(=O)(=O)c3cccs3)ccc21 [1-isopropyl-3-oxo-N-{2-[(2-thienylsulfonyl)amino]phenyl}-1,3-dihydro-2,1-benzisothiazole-5-sulfonamide]
85%		Cn1sc(=O)c2cc(S(=O)(=O)Nc3cccc(SC(F)(F)F)c3)ccc21 [1-methyl-3-oxo-N-{3-[(trifluoromethyl)thio]phenyl}-1,3-dihydro-2,1-benzisothiazole-5-sulfonamide]
80%	1000 nM	Cn1sc(=O)c2cc(S(=O)(=O)Nc3cccc4c3OC(F)(F)O4)ccc21 [N-(2,2-difluoro-1,3-benzodioxol-4-yl)-1-methyl-3-oxo-1,3-dihydro-2,1-benzisothiazole-5-sulfonamide]
104%	744 nM	Cn1sc(=O)c2cc(S(=O)(=O)Nc3ccccc3NS(=O)(=O)c3ccco3)ccc21 [N-{2-[(2-furylsulfonyl)amino]phenyl}-1-methyl-3-oxo-1,3-dihydro-2,1-benzisothiazole-5-sulfonamide]
100%	537 nM	Cn1sc(=O)c2cc(S(=O)(=O)Nc3cc(Br)ccc3NS(=O)(=O)c3cccs3)ccc21 [N-{5-bromo-2-[(2-thienylsulfonyl)amino]phenyl}-1-methyl-3-oxo-1,3-dihydro-2,1-benzisothiazole-5-sulfonamide]
106%	468 nM	Cn1sc(=O)c2cc(S(=O)(=O)Nc3c(Cl)cccc3NS(=O)(=O)c3cccs3)ccc21 [N-{2-chloro-6-[(2-thienylsulfonyl)amino]phenyl}-1-methyl-3-oxo-1,3-dihydro-2,1-benzisothiazole-5-sulfonamide]
100%	823 nM	Cn1sc(=O)c2cc(S(=O)(=O)Nc3cccc(Cl)c3NS(=O)(=O)c3cccs3)ccc21 [N-{3-chloro-2-[(2-thienylsulfonyl)amino]phenyl}-1-methyl-3-oxo-1,3-dihydro-2,1-benzisothiazole-5-sulfonamide]
105%	471 nM	Cn1sc(=O)c2cc(S(=O)(=O)Nc3c(F)cccc3NS(=O)(=O)c3cccs3)ccc21 [N-{2-fluoro-6-[(2-thienylsulfonyl)amino]phenyl}-1-methyl-3-oxo-1,3-dihydro-2,1-benzisothiazole-5-sulfonamide]
99%	1810 nM	Cn1sc(=O)c2cc(S(=O)(=O)Nc3ccccc3NS(=O)(=O)c3cc(Cl)ccc3Cl)ccc21 [N-(2-{[(2,5-dichlorophenyl)sulfonyl]amino}phenyl)-1-methyl-3-oxo-1,3-dihydro-2,1-benzisothiazole-5-sulfonamide]
76%	1450 nM	Cn1sc(=O)c2cc(S(=O)(=O)Nc3cccc4c3OCCO4)ccc21 [N-(2,3-dihydro-1,4-benzodioxin-5-yl)-1-methyl-3-oxo-1,3-dihydro-2,1-benzisothiazole-5-sulfonamide]
86%	1010 nM	COc1ccc(S(=O)(=O)Nc2cc(Cl)c(Cl)cc2NS(=O)(=O)c2ccc3c(c2)c(=O)sn3C)cc1 [N-(4,5-dichloro-2-{[(4-methoxyphenyl)sulfonyl]amino}phenyl)-1-methyl-3-oxo-1,3-dihydro-2,1-benzisothiazole-5-sulfonamide]
95%	1680 nM	COc1ccc(S(=O)(=O)Nc2ccc(Cl)cc2NS(=O)(=O)c2ccc3c(c2)c(=O)sn3C)c(OC)c1 [N-(5-chloro-2-{[(2,4-dimethoxyphenyl)sulfonyl]amino}phenyl)-1-methyl-3-oxo-1,3-dihydro-2,1-benzisothiazole-5-sulfonamide]
55%	3830 nM	COc1cccc(NS(=O)(=O)c2ccc3c(c2)c(=O)sn3C)c1OC [N-(2,3-dimethoxyphenyl)-1-methyl-3-oxo-1,3-dihydro-2,1-benzisothiazolesulfonamide]

CCR2 % ANTAG	IC50	Structure (SMILES)
73%		Cn1sc(=O)c2cc(S(=O)(=O)Nc3ccccc3NS(=O)(=O)c3ccoc3)ccc21 [N-{2-[(3-furylsulfonyl)amino]phenyl}-1-methyl-3-oxo-1,3-dihydro-2,1-benzisothiazole-5-sulfonamide]
96%	438 nM	Cn1sc(=O)c2cc(S(=O)(=O)Nc3ccccc3NS(=O)(=O)c3cc(F)cc(F)c3)ccc21 [N-(2-{[(3,5-difluorophenyl)sulfonyl]amino}phenyl)-1-methyl-3-oxo-1,3-dihydro-2,1-benzisothiazole-5-sulfonamide]
99%	963 nM	Cn1cnc(S(=O)(=O)Nc2ccccc2NS(=O)(=O)c2ccc3c(c2)c(=O)sn3C)c1 [1-methyl-N-(2-{[(1-methyl-1H-imidazol-4-yl)sulfonyl]amino}phenyl)-3-oxo-1,3-dihydro-2,1-benzisothiazole-5-sulfonamide]
76%	2410 nM	COC(=O)c1ccc(NS(=O)(=O)c2cccs2)c(NS(=O)(=O)c2ccc3c(c2)c(=O)sn3C)c1 [methyl 3-{[(1-methyl-3-oxo-1,3-dihydro-2,1-benzisothiazol-5-yl)sulfonyl]amino}-4-[(2-thienylsulfonyl)amino]benzoate]
97%	1290 nM	Cn1sc(=O)c2cc(S(=O)(=O)Nc3cc(Cl)ccc3NS(=O)(=O)c3ccc(Cl)c(Cl)c3)ccc21 [N-(5-chloro-2-{[(3,4-dichlorophenyl)sulfonyl]amino}phenyl)-1-methyl-3-oxo-1,3-dihydro-2,1-benzisothiazole-5-sulfonamide]
103%	360 nM	Cn1sc(=O)c2cc(S(=O)(=O)Nc3ccccc3NS(=O)(=O)c3ccccc3F)ccc21 [N-(2-{[(2-fluorophenyl)sulfonyl]amino}phenyl)-1-methyl-3-oxo-1,3-dihydro-2,1-benzisothiazole-5-sulfonamide]
73%	1940 nM	Cn1sc(=O)c2cc(S(=O)(=O)Nc3cccc4c3OCO4)ccc21 [N-1,3-benzodioxol-4-yl-1-methyl-3-oxo-1,3-dihydro-2,1-benzisothiazole-5-sulfonamide]
102%	393 nM	Cn1sc(=O)c2cc(S(=O)(=O)Nc3ccc(Cl)cc3NS(=O)(=O)c3cccs3)ccc21 [N-{4-chloro-2-[(2-thienylsulfonyl)amino]phenyl}-1-methyl-3-oxo-1,3-dihydro-2,1-benzisothiazole-5-sulfonamide]
96%	2180 nM	Cn1sc(=O)c2cc(S(=O)(=O)Nc3cc4ccccc4cc3NS(=O)(=O)c3cccs3)ccc21 [1-methyl-3-oxo-N-{3-[(2-thienylsulfonyl)amino]-2-naphthyl}-1,3-dihydro-2,1-benzisothiazole-5-sulfonamide]
99%		Cn1sc(=O)c2cc(C(=O)Nc3cc(Cl)ccc3NS(=O)(=O)c3cccs3)ccc21 [N-{5-chloro-2-[(2-thienylsulfonyl)amino]phenyl}-1-methyl-3-oxo-1,3-dihydro-2,1-benzisothiazole-5-carboxamide]
84%		Cn1sc(=O)c2cc(S(=O)(=O)Nc3cccc(C(F)(F)F)c3)ccc21 [1-methyl-3-oxo-N-[3-(trifluoromethyl)phenyl]-1,3-dihydro-2,1-benzisothiazole-5-sulfonamide]
94%	2600 nM	Cn1sc(=O)c2cc(S(=O)(=O)Nc3cc(Cl)ccc3NS(=O)(=O)c3cc(Cl)cc(Cl)c3)ccc21 [N-(5-chloro-2-{[(3,5-dichlorophenyl)sulfonyl]amino}phenyl)-1-methyl-3-oxo-1,3-dihydro-2,1-benzisothiazole-5-sulfonamide]
96%	543 nM	Cn1sc(=O)c2cc(S(=O)(=O)N[C@@H]3CCCC[C@H]3NS(=O)(=O)c3ccc(Cl)c(C(F)(F)F)c3)ccc21 (relative stereo) [rel-N-[(1R,2R)-2-({[4-chloro-3-(trifluoromethyl)phenyl]sulfonyl}amino)cyclohexyl]-1-methyl-3-oxo-1,3-dihydro-2,1-benzisothiazole-5-sulfonamide]
91%	397 nM	COc1ccccc1S(=O)(=O)Nc1ccc(Cl)cc1NS(=O)(=O)c1ccc2c(c1)c(=O)sn2C [N-(5-chloro-2-{[(2-methoxyphenyl)sulfonyl]amino}phenyl)-1-methyl-3-oxo-1,3-dihydro-2,1-benzisothiazole-5-sulfonamide]
99%	361 nM	Cn1sc(=O)c2cc(S(=O)(=O)Nc3cc(Cl)c(Cl)cc3NS(=O)(=O)c3cccs3)ccc21 [N-{4,5-dichloro-2-[(2-thienylsulfonyl)amino]phenyl}-1-methyl-3-oxo-1,3-dihydro-2,1-benzisothiazole-5-sulfonamide]
63%	1670 nM	Cn1sc(=O)c2cc(S(=O)(=O)Nc3cc(Cl)cc4c3OCCO4)ccc21 [N-(7-chloro-2,3-dihydro-1,4-benzodioxin-5-yl)-1-methyl-3-oxo-1,3-dihydro-2,1-benzisothiazole-5-sulfonamide]

— patent US8524745B2 (Allergan, Inc., priority 2011, dated 2013)
